These results are taken from patent publication US8597666B2, “Compressed solid dosage form manufacturing process well-suited for use with drugs of low aqueous solubility and compressed solid dosage forms made thereby” (Teva Pharmaceutical Industries, Ltd., priority 2004, dated 2013).

Data set [1] can be described thus: Particle size distribution by laser light scattering (Malvern Mastersizer S). The following applies: raloxifene hydrochloride used in Formulations 1-4; mean equivalent spherical diameter. Type of data set: physicochemical. An excerpt: All particle sizes herein refer to the mean equivalent spherical diameter measured by laser light scattering techniques. Thus, the notation “d(0.5) greater than about 35 μm” means that 50% of the particles by volume have a mean equivalent spherical diameter of more than about 35 μm, as measured by laser light scattering. The laser light scattering measurement instrument used to measure the particle size distributions in the Examples was a Malvern Mastersizer® S. The dissolution profile was generated by testing in either 900 mL or 2 L of a 0.1% aqueous polysorbate 80 solution, using paddle apparatus (USP Apparatus II) at 50 rpm at 37° C.

For data set [2] the following is noted: starch content increased from 5 to 20%; tablets made by double compression; cited from earlier work.

Structures can show the parent of a compound that is named as a salt.

In the case of `O=C(c1ccc(OCCN2CCCCC2)cc1)c1c(-c2ccc(O)cc2)sc2cc(O)ccc12` [raloxifene hydrochloride], in data set [1], the “particle size d(0.5)” value amounted to 38.8 μm and the “particle size d(0.9)” value amounted to 90.4 μm.
Turning to `O=C(O)c1ccccc1O` [salicylic acid], in data set [2], the “increase in rate of dissolution of salicylic acid from tablets” value is “three fold”.
